Experimental data: patent US10458996B1, “Methods for determining clinical response to TNF-alpha and/or JAK inhibitors in subjects with inflammatory diseases” (Beth Israel Deaconess Medical Center, Inc., priority 2016, dated 2019)

Legend:
[1] = test system: intestinal mucosal explants from patients with IBD; assay: Ex vivo infliximab treatment of intestinal mucosal explant cultures, cytokines in supernatant by multiplex ELISA; type: cell-based, human; details: for GM-CSF inhibition by ex vivo infliximab treatment, % patients / GM-CSF inhibition by ex vivo infliximab treatment, N patients / IFNγ inhibition by ex vivo infliximab treatment, % patients / IFNγ inhibition by ex vivo infliximab treatment, N patients / IL-1β inhibition by ex vivo infliximab treatment, % patients / IL-1β inhibition by ex vivo infliximab treatment, N patients / IL-2 inhibition by ex vivo infliximab treatment, % patients / IL-2 inhibition by ex vivo infliximab treatment, N patients / IL-4 inhibition by ex vivo infliximab treatment, % patients / IL-4 inhibition by ex vivo infliximab treatment, N patients / IL-5 inhibition by ex vivo infliximab treatment, N patients / IL-6 inhibition by ex vivo infliximab treatment, % patients / IL-6 inhibition by ex vivo infliximab treatment, N patients / IL-7 inhibition by ex vivo infliximab treatment, % patients / IL-7 inhibition by ex vivo infliximab treatment, N patients / IL-8 inhibition by ex vivo infliximab treatment, % patients / IL-8 inhibition by ex vivo infliximab treatment, N patients / IL-10 inhibition by ex vivo infliximab treatment, % patients / IL-10 inhibition by ex vivo infliximab treatment, N patients / IL-12p40 inhibition by ex vivo infliximab treatment, N patients / IL-12p70 inhibition by ex vivo infliximab treatment, % patients / IL-12p70 inhibition by ex vivo infliximab treatment, N patients / IL-13 inhibition by ex vivo infliximab treatment, N patients / IL-17A inhibition by ex vivo infliximab treatment, N patients / MCP-1 inhibition by ex vivo infliximab treatment, % patients / MCP-1 inhibition by ex vivo infliximab treatment, N patients / IL-5 inhibition by ex vivo infliximab treatment, % patients / IL-12p40 inhibition by ex vivo infliximab treatment, % patients / IL-13 inhibition by ex vivo infliximab treatment, % patients / IL-17A inhibition by ex vivo infliximab treatment, % patients: infliximab 0.5 mg/ml; for number of cytokines down-regulated in the ex vivo assay: mean±SEM; for ex vivo response rate / ex vivo response rate (patients): responder = down-regulation of >2 cytokines
Protocol: During a hospital visit for an endoscopic procedure that was part of their standard care, patients were asked by the study coordinator whether they were willing to participate in this research study and sign the informed consent approved by the Institution's Committee on Clinical Investigations. From each patient, four extra punch biopsies were taken from the macroscopically most diseased areas of the inflamed intestinal mucosa, put on ice and transferred to the lab within 30 minutes of their harvesting.
(§1) From each patient, intestinal mucosal biopsies were minced into several pieces and distributed in 8 wells of a 96-well plate in 250 μl of Dulbecco's Modified Eagle Medium (DMEM) supplemented with 10% FBS and antibiotic-antimycotic (Life Technologies, CA). Half of the cultures were treated with infliximab (REMICADE®; 0.5 mg/ml; Janssen Biotech, Inc, NJ) and the plate was incubated at 37° C. in a humidified chamber of 95% O2/5% CO2 for 18 hours. Culture supernatants were collected, filtered and stored at −80° C. […] Signal detection and analysis was performed by MAGPIX® (Luminex Corporation, TX).
Within each patient, differences in cytokine release between control and infliximab-treated cultures (n=4 per group) were assessed by the Mann-Whitney test. Cytokine changes in patients with CD (N=29) or UC (N=16) were expressed as mean±SEM and evaluated by unpaired t-test followed by Bonferroni correction for multiple comparisons. In rate or percentage comparisons a chi-square test was applied. The non-parametric Mann-Whitney test was chosen for the rest of two-group analyses. The STATView 2.0 software (SAS Institute) was used for all tests with the exception of the Receiver Operating Characteristic (ROC) analysis for which STATA13 was used.
The impact of anti-TNFα (infliximab) treatment was investigated in vitro using mucosal biopsy cultures derived from the most inflamed areas of the terminal ileum or colon of a total of 45 patients with IBD, 64% with CD and 36% with UC. At the time the biopsies were taken, 32 patients (71%) were receiving medications for their IBD and 16 of them were under an anti-TNFα regimen. The assay read-out consisted of a panel of 15 cytokines, chemokines and inflammatory mediators, and its design was based on previously reported biomarkers for CD and UC, on biomarkers that correlated with response to anti-TNFα treatment and on plausible TNF-alpha related biological mechanisms (Tracey et al., Rismo et al., Iskandar et al., Transl Res 159:313-325, 2012; Umehara et al., Hepatogastroenterology 53:879-882, 2006). For each patient and each cytokine, data were generated for the two conditions (plus/minus infliximab) using the median of 4 independent cultures.

[2] = test system: biopsy samples from patients with IBD; assay: Cytokine profiles of patient biopsy cultures in response to treatment with various agents (Example 2); type: cell-based, human
Protocol: as §1
Patients with IBD were treated with 0.5 mg/ml infliximab (an anti-TNFα antibody; therapeutic agent), 100 μM tofacitinib (a Janus kinase (JAK) inhibitor) and an experimental drug (at 10 μM concentration) in accordance with the protocol described above. Following treatment, biopsy samples were obtained and analyzed for cytokine profiles using […].
Additional similar experiments were conducted for different patients using the same or different therapeutic agents, and the results are shown in FIG. 5D-5H.

patients with CD and UC = details: cited from earlier work
patients with UC = details: cited from earlier work
[3] = test system: patients with moderate-to-severe CD; details: week 24 of intervention; cited from earlier work
[4] = cited from earlier work
[5] = Clinical Response No (n = 17), 18 hours
[6] = Clinical Response No (n = 17), some values below detection limit or missing, 18 hours
[7] = Clinical Response Yes (n = 11), 18 hours
[8] = Clinical Response Yes (n = 11), some values below detection limit or missing, 18 hours
[9] = Mann-Whitney within each patient, 0.5 mg/ml, 18 hours
[10] = cohort 1, anti-TNFα naïve IBD patients
[11] = cohort 2, anti-TNFα exposed patients

infliximab
GM-CSF inhibition by ex vivo infliximab treatment, % patients [1, 5]: 5.9%
GM-CSF inhibition by ex vivo infliximab treatment, N patients [1, 5]: 1
IFNγ inhibition by ex vivo infliximab treatment, % patients [1, 5]: 23.5%
IFNγ inhibition by ex vivo infliximab treatment, N patients [1, 5]: 4
IL-1β inhibition by ex vivo infliximab treatment, % patients [1, 5]: 11.8%
IL-1β inhibition by ex vivo infliximab treatment, N patients [1, 5]: 2
IL-2 inhibition by ex vivo infliximab treatment, % patients [1, 5]: 11.8%
IL-2 inhibition by ex vivo infliximab treatment, N patients [1, 5]: 2
IL-4 inhibition by ex vivo infliximab treatment, % patients [1, 5]: 5.9%
IL-4 inhibition by ex vivo infliximab treatment, N patients [1, 5]: 1
IL-5 inhibition by ex vivo infliximab treatment, N patients [1, 5]: 1
IL-6 inhibition by ex vivo infliximab treatment, % patients [1, 5]: 5.9%
IL-6 inhibition by ex vivo infliximab treatment, N patients [1, 5]: 1
IL-7 inhibition by ex vivo infliximab treatment, % patients [1, 5]: 0.0%
IL-7 inhibition by ex vivo infliximab treatment, N patients [1, 5]: 0
IL-8 inhibition by ex vivo infliximab treatment, % patients [1, 5]: 5.9%
IL-8 inhibition by ex vivo infliximab treatment, N patients [1, 5]: 1
IL-10 inhibition by ex vivo infliximab treatment, % patients [1, 5]: 11.8%
IL-10 inhibition by ex vivo infliximab treatment, N patients [1, 5]: 2
IL-12p40 inhibition by ex vivo infliximab treatment, N patients [1, 5]: 3
IL-12p70 inhibition by ex vivo infliximab treatment, % patients [1, 5]: 17.6%
IL-12p70 inhibition by ex vivo infliximab treatment, N patients [1, 5]: 3
IL-13 inhibition by ex vivo infliximab treatment, N patients [1, 5]: 0
IL-17A inhibition by ex vivo infliximab treatment, N patients [1, 5]: 0
MCP-1 inhibition by ex vivo infliximab treatment, % patients [1, 5]: 5.9%
MCP-1 inhibition by ex vivo infliximab treatment, N patients [1, 5]: 1
IL-5 inhibition by ex vivo infliximab treatment, % patients [1, 6]: 7.7%
IL-12p40 inhibition by ex vivo infliximab treatment, % patients [1, 6]: 20.0^∧ %
IL-13 inhibition by ex vivo infliximab treatment, % patients [1, 6]: 0.0^∧ %
IL-17A inhibition by ex vivo infliximab treatment, % patients [1, 6]: 0.0^∧ %
GM-CSF inhibition by ex vivo infliximab treatment, % patients [1, 7]: 9.1%
GM-CSF inhibition by ex vivo infliximab treatment, N patients [1, 7]: 1
IFNγ inhibition by ex vivo infliximab treatment, % patients [1, 7]: 45.5%
IFNγ inhibition by ex vivo infliximab treatment, N patients [1, 7]: 5
IL-1β inhibition by ex vivo infliximab treatment, % patients [1, 7]: 45.5%
IL-1β inhibition by ex vivo infliximab treatment, N patients [1, 7]: 5
IL-2 inhibition by ex vivo infliximab treatment, % patients [1, 7]: 45.5%
IL-2 inhibition by ex vivo infliximab treatment, N patients [1, 7]: 5
IL-4 inhibition by ex vivo infliximab treatment, % patients [1, 7]: 63.6%
IL-4 inhibition by ex vivo infliximab treatment, N patients [1, 7]: 7
IL-5 inhibition by ex vivo infliximab treatment, % patients [1, 7]: 81.8%
IL-5 inhibition by ex vivo infliximab treatment, N patients [1, 7]: 9
IL-6 inhibition by ex vivo infliximab treatment, % patients [1, 7]: 0.0%
IL-6 inhibition by ex vivo infliximab treatment, N patients [1, 7]: 0
IL-7 inhibition by ex vivo infliximab treatment, N patients [1, 7]: 8
IL-8 inhibition by ex vivo infliximab treatment, % patients [1, 7]: 0.0%
IL-8 inhibition by ex vivo infliximab treatment, N patients [1, 7]: 0
IL-10 inhibition by ex vivo infliximab treatment, % patients [1, 7]: 18.2%
IL-10 inhibition by ex vivo infliximab treatment, N patients [1, 7]: 2
IL-12p40 inhibition by ex vivo infliximab treatment, % patients [1, 7]: 45.5%
IL-12p40 inhibition by ex vivo infliximab treatment, N patients [1, 7]: 5
IL-12p70 inhibition by ex vivo infliximab treatment, % patients [1, 7]: 27.3%
IL-12p70 inhibition by ex vivo infliximab treatment, N patients [1, 7]: 3
IL-13 inhibition by ex vivo infliximab treatment, N patients [1, 7]: 7
IL-17A inhibition by ex vivo infliximab treatment, % patients [1, 7]: 72.7%
IL-17A inhibition by ex vivo infliximab treatment, N patients [1, 7]: 8
MCP-1 inhibition by ex vivo infliximab treatment, % patients [1, 7]: 9.1%
MCP-1 inhibition by ex vivo infliximab treatment, N patients [1, 7]: 1
IL-7 inhibition by ex vivo infliximab treatment, % patients [1, 8]: 88.8%
IL-13 inhibition by ex vivo infliximab treatment, % patients [1, 8]: 70.0%
number of cytokines per patient, besides TNFα, significantly inhibited ex vivo, maximum [1, 9]: 12
number of cytokines per patient, besides TNFα, significantly inhibited ex vivo, median [1, 9]: 2
number of cytokines per patient, besides TNFα, significantly inhibited ex vivo, minimum [1, 9]: 0
Changes in TNFα levels in culture supernatant ([1]; all patients tested, p<0.0001, 0.5 mg/ml, 18 hours): robustly down-regulated
number of cytokines down-regulated in the ex vivo assay ([1]; clinical non-responders to anti-TNFα therapy): 1.29±0.63
number of cytokines down-regulated in the ex vivo assay ([1]; clinical responders to anti-TNFα therapy): 6.0±1.02
ex vivo inhibition of IL-17A, IL-7, IL-5 and IL-4/IL-13 ([1]; clinical responders versus non-responders to anti-TNFα therapy): almost exclusively observed in the clinical responders
ex vivo response rate [1, 10]: 45.5%
ex vivo response rate (patients) [1, 10]: 10/23
ex vivo response rate [1, 11]: 43.5%
ex vivo response rate (patients) [1, 11]: 10/22
magnitude of infliximab-mediated inhibition of the rest of cytokines (other than TNFα) ([1]; group means, CD and UC patients, 0.5 mg/ml, 18 hours): < 30%
cytokines whose inhibition reached statistical significance ([1]; patients with CD (N=29), 0.5 mg/ml, 18 hours): IL-2 (p<0.001), IL-12p40 (p<0.05) and IL-5 (p<0.05)
cytokines whose inhibition reached statistical significance ([1]; patients with UC (N=16), 0.5 mg/ml, 18 hours): IL-1β (p<0.05) and IL-7 (p<0.05)
biomarkers with reductions in level achieving statistical significance ([2]; 0.5 mg/ml, cytokine responder group compared to non-responder group (FIG. 5A)): IL-12p40, IL-12p70, IL-13, IL-17A, IL-2, IL-4, IL-5, and IL-7
TNFα levels ([2]; 0.5 mg/ml, responder and non-responder groups (FIG. 5A)): significantly attenuated in both groups
ex vivo response of patient ([2]; patient ID 13-284 (FIG. 5D)): ex vivo responder
changes in cytokine profile ([2]; patient ID 13-284 (FIG. 5D), in addition to the direct target TNFα): three cytokine expression down-regulation
sustained response rates beyond week 30 (patients with CD and UC; IBD patients): 30-40%
Primary response rates to induction therapy (patients with CD and UC; randomized clinical trials of CD and UC): up to 60%
clinical response rates during induction (patients with UC; 10 mg/kg, week 8): 61.5%
clinical response rates, maintenance therapy (patients with UC; week 53): 19.8%
Mucosal healing rates [3]: 30.1%
patients with undetectable infliximab serum levels ([4]; 483 patients with CD during maintenance therapy): 23%
risk to loose response in the presence of ADA ([4]; metanalysis, 95% CI:2-4.9): 3.2 fold
patients positive for anti-drug antibodies (ADA) ([4]; of the CD patients with undetectable infliximab serum levels): 72%
patients developing anti-drug antibodies (ADA) ([4]; secondary loss of response): 10%
